The text below walks through data of patent US20240174695A1, “Spirocycle Containing Bicyclic Heteroaryl Compounds” (Protego Biopharma, Inc., priority 2022, published 2024).

Molecules are shown by their SMILES.

The test system of this experiment is Recombinant amyloidogenic full length light chain protein WIL-FL T46L. The experiment is described as follows: Differential Scanning Fluorimetry Assay (thermal shift assay). Note: test concentration or dose not given here. Type of experiment: binding. To be noted: Thermal Shift Protein Stability Kit (Biotium), 96-well plates; protein and compounds incubated at RT for 30 min before adding the dye. The method, then:
Differential Scanning Fluorimetry Assay
The stabilization effects the compounds have on the immunoglobulin light chain protein were quantitively measured using a thermal shift assay. Recombinant amyloidogenic full length light chain protein WIL-FL T46L was produced in E. coli, purified, and used in the assay. The Thermal Shift Protein Stability Kit from Biotium was used and the assay was done in 96-well plates following the manufacturer's instructions. The protein and compounds were incubated at RT for 30 min before adding the dye and subjected to the thermal shift assay. The thermal stability (Tm) of each sample was then determined using standard curve fitting methods and compared to vehicle. Data are expressed as temperature shift: [Tm]compound−[Tm]vehicle.
Results • 0-0.5° C.=* • >0.5-1° C.=** • >1-1.5° C.=*** • >1.5-2.5° C.=**** • >2.5° C.=*****
On the technique in general: In DSF a fluorescence change marks the thermal transition of the protein.
For `Cc1cc(OCC2(c3ccccc3)CC2)cn2nc(C(O)CN3CC4(CCN(c5cnc(C#N)c(F)c5)CC4)NC3=O)nc12` (stereo not shown) [Compound 38], the “DSF temperature shift: [Tm]compound−[Tm]vehicle” value (“DSF temperature shift” below) was “**** (>1.5-2.5° C.=****)”.

As to `C[C@@H](COc1cc(CO)c2nc(C(O)CN3CC4(CN(c5ccnc(O)c5)C4)NC3=O)nn2c1)c1ccccc1` (stereo partly shown) [Compound 144], the “DSF temperature shift” value was “***** (>2.5° C.=*****)”.

As for `Cc1cc(OCC2(c3ccccc3)CC2)cn2nc(C(O)CN3CC4(CCN(C(=O)Cn5nnnc5C)CC4)NC3=O)nc12` (stereo not shown) [Compound 34], the “DSF temperature shift” value was “**** (>1.5-2.5° C.=****)”.

With `Cc1cc(OCC2(c3ccccc3)CC2)cn2nc(C(O)CN3CC4(CCN(c5nnn(C)n5)CC4)NC3=O)nc12` (stereo not shown) [Compound 62], the “DSF temperature shift” value is recorded as “**** (>1.5-2.5° C.=****)”.

Consider `Cc1cc(OC[C@H](C)c2ccccc2)cn2nc(C(O)CN3CC4(CN(c5ccnc(O)c5)C4)NC3=O)nc12` (stereo partly shown) [Compound 84], for which the “DSF temperature shift” value is given as “***** (>2.5° C.=*****)”.

Regarding `Cc1cc(F)ncc1N1CCC2(CC1)CN(CC(O)c1nc3c(C)cc(OCC4(c5ccccc5)CC4)cn3n1)C(=O)N2` (stereo not shown) [Compound 36], the “DSF temperature shift” value is recorded as “**** (>1.5-2.5° C.=****)”.

With `Cc1nc(N2CCC3(CC2)CN(CCc2nc4c(C)cc(OC[C@H](C)c5ccccc5)cn4n2)C(=O)N3)ns1` [Compound 124], the “DSF temperature shift” value was “**** (>1.5-2.5° C.=****)”.

With `Cc1cc(N2CCC3(CC2)CN(CC(O)c2nc4c(C)cc(OCC5(c6ccccc6)CC5)cn4n2)C(=O)N3)ccn1` (stereo not shown) [Compound 18], the “DSF temperature shift” value was “***** (>2.5° C.=*****)”.

As to `Cc1cc(OC[C@H](C)c2ccccc2)cn2nc(CCN3CC4(CCN(c5ccnc(O)c5)CC4)NC3=O)nc12` [Compound 105], the “DSF temperature shift” value is “***** (>2.5° C.=*****)”.

Consider `Cc1cc(OC[C@H](C)c2ccccc2)cn2nc(CCN3CC4(CCN(c5ccnc(C(F)(F)F)c5)CC4)NC3=O)nc12` [Compound 96], for which the “DSF temperature shift” value was “*** (>1-1.5° C.=***)”.

Regarding `CC[C@]1(c2ccccc2)CCN(c2cc(C)c3nc(CCN4CC5(CCN(c6nccn7cncc67)CC5)NC4=O)nn3c2)C1` [Compound 6], the “DSF temperature shift” value was “***** (>2.5° C.=*****)”.

For `Cc1noc(N2CCC3(CC2)CN(CCc2nc4c(C)cc(OC[C@H](C)c5ccccc5)cn4n2)C(=O)N3)n1` [Compound 108], the “DSF temperature shift” value is listed as “***** (>2.5° C.=*****)”.

Consider `Cc1cc(OC[C@H](C)c2ccccc2)cn2nc(C(O)CN3CC4(CN(c5nccc(C(=O)O)n5)C4)NC3=O)nc12` (stereo partly shown) [Compound 87], for which the “DSF temperature shift” value is recorded as “***** (>2.5° C.=*****)”.

As to `COc1cc(N2CCC3(CC2)CN(CCc2nc4c(C)cc(OC[C@H](C)c5ccccc5)cn4n2)C(=O)N3)ccn1` [Compound 143], the “DSF temperature shift” value is “**** (>1.5-2.5° C.=****)”.

Regarding `Cc1cc(OC[C@H](C)c2ccccc2)cn2nc(C(O)CN3CC4(CCN(c5cccc(O)n5)CC4)NC3=O)nc12` (stereo partly shown) [Compound 72], the “DSF temperature shift” value is “**** (>1.5-2.5° C.=****)”.

Consider `Cc1cc(OC[C@H](C)c2ccccc2)cn2nc(C(=O)CN3CC4(CCN(c5nccn6cnnc56)CC4)CC3=O)nc12` [Compound 64], for which the “DSF temperature shift” value is reported as “**** (>1.5-2.5° C.=****)”.

On to `Cc1cc(OC[C@H](C)c2ccccc2)cn2nc(C(O)CN3CC4(CN(c5cccc(C(=O)O)n5)C4)NC3=O)nc12` (stereo partly shown) [Compound 86], for which the “DSF temperature shift” value is reported as “**** (>1.5-2.5° C.=****)”.

Consider `Cc1cc(OC[C@H](C)c2ccccc2)cn2nc(C(O)CN3CC4(CCN(c5nccn6cnnc56)CC4)NC3=O)nc12` (stereo partly shown) [Compound 76], for which the “DSF temperature shift” value was “***** (>2.5° C.=*****)”.

On to `Cc1cc(OCC2(c3ccccc3)CC2)cn2nc(C(O)CN3CC4(CCN(c5ncccn5)CC4)NC3=O)nc12` (stereo not shown) [Compound 56], for which the “DSF temperature shift” value was “***** (>2.5° C.=*****)”.

For the compound `Cc1cc(OCC2(c3ccccc3)CC2)cn2nc(C(O)CN3CC4(CCN(c5ccnnc5)CC4)NC3=O)nc12` (stereo not shown) [Compound 47], the “DSF temperature shift” value was “**** (>1.5-2.5° C.=****)”.

Regarding `Cc1cc(OC[C@H](C)c2ccccc2)cn2nc(CCN3CC4(CCN(c5ncc(F)cn5)C4)NC3=O)nc12` (stereo partly shown) [Compound 112], the “DSF temperature shift” value is recorded as “**** (>1.5-2.5° C.=****)”.

As for `Cc1nonc1C(=O)N1CCC2(CC1)CN(CC(O)c1nc3c(C)cc(OCC4(c5ccccc5)CC4)cn3n1)C(=O)N2` (stereo not shown) [Compound 31], the “DSF temperature shift” value was “**** (>1.5-2.5° C.=****)”.

Consider `Cc1cc(OC[C@H](C)c2ccccc2)cn2nc(CCN3CC4(CN(c5ncc(F)cn5)C4)NC3=O)nc12` [Compound 127], for which the “DSF temperature shift” value is listed as “***** (>2.5° C.=*****)”.

`COc1cc(N2CCC3(CC2)CN(CC(O)c2nc4c(C)cc(OCC5(c6ccccc6)CC5)cn4n2)C(=O)N3)ccn1` (stereo not shown) [Compound 142]: the “DSF temperature shift” value is given as “***** (>2.5° C.=*****)”.

As for `Cc1cc(OC[C@H](C)c2ccccc2)cn2nc(CCN3CC4(CCN(c5nccn6cncc56)CC4)NC3=O)nc12` [Compound 63], the “DSF temperature shift” value was “**** (>1.5-2.5° C.=****)”.

Turning to `CNC(=O)c1cc(N2CCC3(CC2)CN(CC(C)(O)c2nc4c(C)cc(OC[C@H](C)c5ccccc5)cn4n2)C(=O)N3)ccn1` (stereo partly shown) [Compound 132], the “DSF temperature shift” value was “**** (>1.5-2.5° C.=****)”.

Take `Cc1cc(OCC2(c3ccccc3)CC2)cn2nc(C(O)CN3CC4(CCN(c5ccnc(F)n5)CC4)NC3=O)nc12` (stereo not shown) [Compound 44]: the “DSF temperature shift” value was “***** (>2.5° C.=*****)”.

In the case of `Cc1cc(OC[C@H](C)c2ccccc2)cn2nc(C(O)CN3CC4(CN(c5nccn6cnnc56)C4)NC3=O)nc12` (stereo partly shown) [Compound 88], the “DSF temperature shift” value is reported as “***** (>2.5° C.=*****)”.

Regarding `Cc1cc(OC[C@H](C)c2ccccc2)cn2nc(C(O)CN3CC4(CCN(c5cnccn5)CC4)NC3=O)nc12` (stereo partly shown) [Compound 78], the “DSF temperature shift” value is “***** (>2.5° C.=*****)”.

With `Cc1cc(OC[C@H](C)c2ccccc2)cn2nc(CCN3CC4(CCN(c5cc(F)nc(F)n5)CC4)NC3=O)nc12` [Compound 110], the “DSF temperature shift” value is “**** (>1.5-2.5° C.=****)”.

Consider `Cc1cc(OC[C@H](C)c2ccccc2)cn2nc(CCN3CC4(CCN(C(=O)c5ncccn5)CC4)NC3=O)nc12` [Compound 91], for which the “DSF temperature shift” value was “**** (>1.5-2.5° C.=****)”.

Turning to `Cc1cc(OCC2(c3ccccc3)CC2)cn2nc(C(O)CN3CC4(CCN(c5ccn(C)n5)CC4)NC3=O)nc12` (stereo not shown) [Compound 61], the “DSF temperature shift” value is reported as “**** (>1.5-2.5° C.=****)”.

Take `COC(CN1CC2(CCN(c3ccnc(O)c3)CC2)NC1=O)c1nc2c(C)cc(OC[C@H](C)c3ccccc3)cn2n1` (stereo partly shown) [Compound 138]: the “DSF temperature shift” value is on record as “**** (>1.5-2.5° C.=****)”.

For `Cc1cc(OCC2(c3ccccc3)CC2)cn2nc(C(O)CN3CC4(CCN(c5cc(F)ncn5)CC4)NC3=O)nc12` (stereo not shown) [Compound 59], the “DSF temperature shift” value is “**** (>1.5-2.5° C.=****)”.

Regarding `Cc1cc(OCC2(c3ccccc3)CC2)cn2nc(C(O)CN3CC4(CCN(C(=O)Cc5nnc[nH]5)CC4)NC3=O)nc12` (stereo not shown) [Compound 32], the “DSF temperature shift” value is recorded as “**** (>1.5-2.5° C.=****)”.

In the case of `Cc1cc(OC[C@H](C)c2ccccc2)cn2nc(CCN3CC4(CCN(c5ncn(C)n5)CC4)NC3=O)nc12` [Compound 120], the “DSF temperature shift” value is on record as “**** (>1.5-2.5° C.=****)”.

As for `Cc1cc(OCC2(c3ccccc3)CC2)cn2nc(C(O)CN3CC4(CCN(c5cnc(Cl)cn5)CC4)NC3=O)nc12` (stereo not shown) [Compound 55], the “DSF temperature shift” value is on record as “**** (>1.5-2.5° C.=****)”.

For the compound `Cc1cc(OCC2(c3ccccc3)CC2)cn2nc(C(O)CN3CC4(CCN(C(=O)c5nncn5C)CC4)NC3=O)nc12` (stereo not shown) [Compound 30, 3-(2-hydroxy-2-(8-methyl-6-((1-phenylcyclopropyl)methoxy)-[1,2,4]triazolo[1,5-a]pyridin-2-yl)ethyl)-8-(4-methyl-4H-1,2,4-triazole-3-carbonyl)-1,3,8-triazaspiro[4.5]decan-2-one], the “DSF temperature shift” value was “**** (>1.5-2.5° C.=****)”.

Turning to `CC(=O)N1CCC(N2CCC3(CC2)CN(CC(O)c2nc4c(C)cc(OCC5(c6ccccc6)CC5)cn4n2)C(=O)N3)CC1` (stereo not shown) [Compound 15], the “DSF temperature shift” value is “*** (>1-1.5° C.=***)”.

In the case of `Cc1nnc(N2CCC3(CC2)CN(CCc2nc4c(C)cc(OC[C@H](C)c5ccccc5)cn4n2)C(=O)N3)s1` [Compound 122], the “DSF temperature shift” value is listed as “**** (>1.5-2.5° C.=****)”.

In the case of `Cc1nc(N2CCC3(CC2)CN(CCc2nc4c(C)cc(OC[C@H](C)c5ccccc5)cn4n2)C(=O)N3)no1` [Compound 123], the “DSF temperature shift” value is listed as “**** (>1.5-2.5° C.=****)”.

As for `C[C@]1(c2ccccc2)CCN(c2cc(CO)c3nc(C(O)CN4CC5(CN(c6ccnc(O)c6)C5)NC4=O)nn3c2)C1` (stereo partly shown) [Compound 146], the “DSF temperature shift” value was “***** (>2.5° C.=*****)”.

On to `Cc1cc(OC[C@H](C)c2ccccc2)cn2nc(CCN3CC4(CCN(c5cccnc5C(F)(F)F)CC4)NC3=O)nc12` [Compound 104], for which the “DSF temperature shift” value is listed as “** (>0.5-1° C.=**)”.

`Cc1cc(OC[C@H](C)c2ccccc2)cn2nc(CCN3CC4(CCN(c5nc(F)cc(F)n5)CC4)NC3=O)nc12` [Compound 109]: the “DSF temperature shift” value is “**** (>1.5-2.5° C.=****)”.

Consider `Cc1cc(OC[C@H](C)c2ccccc2)cn2nc(CCN3CC4(CCN(c5ncns5)CC4)NC3=O)nc12` [Compound 119], for which the “DSF temperature shift” value is listed as “**** (>1.5-2.5° C.=****)”.

On to `Cc1cc(N2CC3(CN(CC(O)c4nc5c(C)cc(OC[C@H](C)c6ccccc6)cn5n4)C(=O)N3)C2)cc(O)n1` (stereo partly shown) [Compound 16], for which the “DSF temperature shift” value is recorded as “***** (>2.5° C.=*****)”.
